Earlier results, collected in PubChem BioAssay AID1259409 (Chemical Carcinogenesis Research Information System (CCRIS), 2018).

System: rodent chemically induced tumor inhibition, incidence and multiplicity
Assay: CCRIS tumor inhibitor studies
Conditions: Carcinogen: 4-(METHYLNITROSAMINO)-1-(3-PYRIDYL)-1-BUTANONE, 64091-91-4, Dose [Inhibitor]: 0, Promoter: NONE USED

S=C=NCCc1ccccc1
tumour outcome (control, treated, inhibition, significance) (1 UMOL ONCE 2 HR PRIOR TO CARCINOGEN DOSE (STUDY DURATION: 16 WK), Route [Inhibitor]: GAVAGE, Species: MOUSE, Strain/Sex: STRAIN-A/FEMALE, Target Tissue: Type of Lesion: LUNG: ADENOMA, Dose [Carcinogen]: 10 UMOL IN 0.1 ML SALINE ONCE): 100%, 100%, 0%, not significant
tumour outcome (control, treated, inhibition, significance) (1 UMOL/G DIET FOR 15 WK BEGINNING 1 WK POST CARCINOGEN DOSE (STUDY DURATION: 16 WK), Route [Inhibitor]: ORAL, Species: MOUSE, Strain/Sex: STRAIN-A/FEMALE, Target Tissue: Type of Lesion: LUNG: ADENOMA, Dose [Carcinogen]: 10 UMOL ONCE): 100%, 100%, 0%, not significant
tumour outcome (control, treated, inhibition, significance) (3 UMOL/G DIET FOR 15 WK BEGINNING 1 WK POST CARCINOGEN DOSE (STUDY DURATION: 16 WK), Route [Inhibitor]: ORAL, Species: MOUSE, Strain/Sex: STRAIN-A/FEMALE, Target Tissue: Type of Lesion: LUNG: ADENOMA, Dose [Carcinogen]: 10 UMOL ONCE): 100%, 100%, 0%, not significant
tumour outcome (control, treated, inhibition, significance) (3 UMOL/G DIET FOR 21 WK BEGINNING 1 WK PRIOR TO FIRST CARCINOGEN DOSE (STUDY DURATION: 104 WK), Route [Inhibitor]: ORAL, Species: RAT, Strain/Sex: F344/MALE, Target Tissue: Type of Lesion: LIVER: ADENOMA, Dose [Carcinogen]: 1.76 MG/KG 3/WK FOR 20 WK): 12/40 (30%), 9/40 (23%), 23%, not calculated
tumour outcome (control, treated, inhibition, significance) (3 UMOL/G DIET FOR 21 WK BEGINNING 1 WK PRIOR TO FIRST CARCINOGEN DOSE (STUDY DURATION: 104 WK), Route [Inhibitor]: ORAL, Species: RAT, Strain/Sex: F344/MALE, Target Tissue: Type of Lesion: LIVER: CARCINOMA, Dose [Carcinogen]: 1.76 MG/KG 3/WK FOR 20 WK): 3/40 (8%), 5/40 (13%), -63%, not calculated
tumour outcome (control, treated, inhibition, significance) (3 UMOL/G DIET FOR 21 WK BEGINNING 1 WK PRIOR TO FIRST CARCINOGEN DOSE (STUDY DURATION: 104 WK), Route [Inhibitor]: ORAL, Species: RAT, Strain/Sex: F344/MALE, Target Tissue: Type of Lesion: LUNG: ADENOMA, Dose [Carcinogen]: 1.76 MG/KG 3/WK FOR 20 WK): 8/40 (20%), 5/40 (13%), 35%, not calculated
tumour outcome (control, treated, inhibition, significance) (3 UMOL/G DIET FOR 21 WK BEGINNING 1 WK PRIOR TO FIRST CARCINOGEN DOSE (STUDY DURATION: 104 WK), Route [Inhibitor]: ORAL, Species: RAT, Strain/Sex: F344/MALE, Target Tissue: Type of Lesion: LUNG: CARCINOMA, Dose [Carcinogen]: 1.76 MG/KG 3/WK FOR 20 WK): 24/40 (60%), 12/40 (30%), 50%, not calculated
tumour outcome (control, treated, inhibition, significance) (3 UMOL/G DIET FOR 21 WK BEGINNING 1 WK PRIOR TO FIRST CARCINOGEN DOSE (STUDY DURATION: 104 WK), Route [Inhibitor]: ORAL, Species: RAT, Strain/Sex: F344/MALE, Target Tissue: Type of Lesion: NASAL CAVITY: BENIGN TUMOR, Dose [Carcinogen]: 1.76 MG/KG 3/WK FOR 20 WK): 8/40 (20%), 6/40 (15%), 25%, not calculated
tumour outcome (control, treated, inhibition, significance) (3 UMOL/G DIET FOR 21 WK BEGINNING 1 WK PRIOR TO FIRST CARCINOGEN DOSE (STUDY DURATION: 104 WK), Route [Inhibitor]: ORAL, Species: RAT, Strain/Sex: F344/MALE, Target Tissue: Type of Lesion: NASAL CAVITY: SQUAMOUS CELL CARCINOMA, Dose [Carcinogen]: 1.76 MG/KG 3/WK FOR 20 WK): 3/40 (8%), 7/40 (3%), 63%, not calculated
tumour outcome (control, treated, inhibition, significance) (3 UMOL/G OF DIET FOR 112 WK BEGINNING 1 WK PRIOR TO CARCINOGEN TREATMENT (STUDY DURATION: 112 WK), Route [Inhibitor]: ORAL, Species: RAT, Strain/Sex: F344/MALE, Target Tissue: Type of Lesion: HEMATOPOIETIC SYSTEM: LEUKEMIA OR LYMPHOMA, Dose [Carcinogen]: 2 PPM IN DRINKING WATER FOR 111 WK): 26/56 (46%), 28/59 (47%), -2%, not significant
tumour outcome (control, treated, inhibition, significance) (3 UMOL/G OF DIET FOR 112 WK BEGINNING 1 WK PRIOR TO CARCINOGEN TREATMENT (STUDY DURATION: 112 WK), Route [Inhibitor]: ORAL, Species: RAT, Strain/Sex: F344/MALE, Target Tissue: Type of Lesion: LIVER: ADENOMA OR CARCINOMA, Dose [Carcinogen]: 2 PPM IN DRINKING WATER FOR 111 WK): 5/55 (9%), 2/56 (4%), 56%, not significant
tumour outcome (control, treated, inhibition, significance) (3 UMOL/G OF DIET FOR 112 WK BEGINNING 1 WK PRIOR TO CARCINOGEN TREATMENT (STUDY DURATION: 112 WK), Route [Inhibitor]: ORAL, Species: RAT, Strain/Sex: F344/MALE, Target Tissue: Type of Lesion: LUNG: ADENOCARCINOMA, Dose [Carcinogen]: 2 PPM IN DRINKING WATER FOR 111 WK): 23/56 (41%), 1/59 (2%), 95%, p=0.00001
tumour outcome (control, treated, inhibition, significance) (3 UMOL/G OF DIET FOR 112 WK BEGINNING 1 WK PRIOR TO CARCINOGEN TREATMENT (STUDY DURATION: 112 WK), Route [Inhibitor]: ORAL, Species: RAT, Strain/Sex: F344/MALE, Target Tissue: Type of Lesion: LUNG: ADENOMA, Dose [Carcinogen]: 2 PPM IN DRINKING WATER FOR 111 WK): 16/56 (29%), 2/59 (3%), 90%, p=0.0002
tumour outcome (control, treated, inhibition, significance) (3 UMOL/G OF DIET FOR 112 WK BEGINNING 1 WK PRIOR TO CARCINOGEN TREATMENT (STUDY DURATION: 112 WK), Route [Inhibitor]: ORAL, Species: RAT, Strain/Sex: F344/MALE, Target Tissue: Type of Lesion: NASAL CAVITY: PAPILLOMA OR CARCINOMA, Dose [Carcinogen]: 2 PPM IN DRINKING WATER FOR 111 WK): 1/48 (2%), 0/53 (0%), 100%, not significant
tumour outcome (control, treated, inhibition, significance) (3 UMOL/G OF DIET FOR 112 WK BEGINNING 1 WK PRIOR TO CARCINOGEN TREATMENT (STUDY DURATION: 112 WK), Route [Inhibitor]: ORAL, Species: RAT, Strain/Sex: F344/MALE, Target Tissue: Type of Lesion: PANCREAS (ENDOCRINE): BENIGN TUMOR, Dose [Carcinogen]: 2 PPM IN DRINKING WATER FOR 111 WK): 5/52 (10%), 7/59 (12%), -20%, not significant
tumour outcome (control, treated, inhibition, significance) (3 UMOL/G OF DIET FOR 112 WK BEGINNING 1 WK PRIOR TO CARCINOGEN TREATMENT (STUDY DURATION: 112 WK), Route [Inhibitor]: ORAL, Species: RAT, Strain/Sex: F344/MALE, Target Tissue: Type of Lesion: PANCREAS (EXOCRINE): BENIGN TUMOR, Dose [Carcinogen]: 2 PPM IN DRINKING WATER FOR 111 WK): 1/52 (2%), 8/59 (14%), -600%, p=0.025
